Results from patent publication US11306119B2, “Peptide bound to PD-L1 and use thereof” (KYUNGPOOK NATIONAL UNIVERSITY INDUSTRY-ACADEMIC COOPERATION …, priority 2017, dated 2022).

What was measured:
[1] = tested on: PD-L1 on MDA MB231 cells; test: Peptide and receptor internalization assay in MDA MB231 cells; type: cell-based, human; conditions: MDA MB231, FIG. 2d
Procedure: MDA MB231, CT26, MCF7, Hek29 cells (1×10^5) were seeded in eight well chamber slides for overnight. Next day, the cells were washed twice with PBS and incubated with 1% BSA at RT for 1 hr to reduce the non-specific binding of peptides. The cells were then incubated with different concentration ([…]) of FITC conjugated peptide for 1 hr at 4° C. After fixation, cells were washed, and counter stained with DAPI, mounted and subjected to confocal microscopy (Zeiss, Oberkochen, Germany). For the peptide internalization assay, the MDA MB231 cells were incubated with […] concentration of FITC-conjugated peptides at 37° C. for 1 hr 30 min, the procedure was then continued as previously described. For the receptor internalization assay, first the internalization of peptide was obtained as described above and then after several washing steps with PBS, the PD-L1 antibody (1:100 dilution) was incubated with the cell for 1 hr 30 min at 37° C. […] For flow cytometry, cells (1×10^6) were harvested and then suspended in the culture medium containing 1% BSA at RT for 1 hr for blocking and then incubated with FITC-labelled PD-L1 for another 1 hr at 4° C. After several washing, 300 ul of cell suspension with PBS was subjected to flow cytometry (BD, Franklin Lakes, N.J.). […]

[2] = tested on: CT26 syngeneic tumor; test: Antitumor therapy in CT26 syngeneic mouse model (peptide alone); type: in vivo; conditions: i.v. every alternative day, 24 days, FIG. 5b
Procedure: (§1) 6-8-week-old WT Balb/c mice were purchased. Mice was cared and maintained under the guidelines of the Institutional Animal Care and Use Committee (IACUC) of Kyungpook National University (2014-0001-8.). Tumor was injected onto the lower right flank of the mice. For the in-vivo homing imaging, the tumor was developed for 7 days, after the tumor size reached to 100 mm^3, the mice were injected with 100 μl of […] Flamma-675 NIR fluorescence dye labelled peptides and allow the complete circulation for an hour. After incubation, the mice were anesthetized, and the image was taken using the IVIS imaging system. […] Tumor size was measured using a digital caliper, and the tumor volume was calculated using the formula (Volume ¼ (L−W−H)/2. (Length: longest dimension, Width: shorter dimension, parallel to the mouse body and Height: perpendicular to the length and width). All mice were checked for the ulceration and at the end of the treatment and the mice were sacrificed for the immune cell analysis.
(§2) Tumors were isolated, minced and incubated with a digestion buffer containing collagenase D (5 mg/ml) with the RPMI-1640 medium at 37° C. for 40 min. […] The single cell suspension was made ready to use and CD45 antibody was used to stain the tumor infiltrating leukocytes and then analyzed with following antibodies for CD4, CD8 and F4/80. […]

[3] = tested on: CT26 mouse syngeneic colon tumor; test: Combination therapy of peptides with doxorubicin in CT26 syngeneic colon tumor model; type: in vivo; conditions: flow cytometry, FIG. 6e
Procedure: as §1, §2

| Substance | surface PD-L1 antibody staining after peptide internalization (receptor internalization) [1] | tumor volume control compared to control peptide and PBS group [2] | percentage of CD4+ T cells in tumor tissue, increased value ("to") [3] [%] |
| --- | --- | --- | --- |
| NSSSVDK (phage coat protein used as control peptide) | did not decrease | – | – |
| CLQKTPKQC [PD-L1Pep-1] | – | robust effect | 6 |
